Measurements published in patent US20040229825A1, “Pharmaceutical composition for treatment of infection with drug resistant bacterium and disinfectant” (priority 2003, published 2004).
≈ marks a conversion by molar mass, not a printed value. Where two headings read alike, the source gives them in different places. Blank lines part the entries; values can stand above or below the compound they belong to.

What was measured:
MRSA [1] = experiment: Antibacterial activity of flavonoids on MRSA (agar plate dilution method, MIC); assay type: cell-based, Staphylococcus aureus; conditions: flavonoid alone; for MIC: 20 h; for MIC / MIC50 / MIC90 / MIC range: MRSA 20 strains
Experimental: (§1) MRSA were employed as bacteria to be tested. The antibacterial activity was determined according to the agar plate dilution method defined by Japan Society of Chemotherapy (Chemotherapy 29(1), 76-79(1981)). The employed plate medium for the measurement of sensitivity was semisynthetic medium based on Mueller-Hinton Agar, and the bacteria solution for seeding was prepared by incubating the test bacterium in Mueller-Hinton Broth at 37° C. for 20 hours, followed by diluting in 0.85% saline to give 10^6 CFU/mL. The test samples were produced in two times-serial dilution method. To this plate medium for the measurement of sensitivity, was seeded a bacteria solution with a Micro Planter® (Sakuma Seisakusho). After incubating at 37° C. for 20 hours, a minimum inhibitory concentration (MIC) was determined. […] In addition, MIC50 indicates a concentration yielding the proliferation inhibitory effect in 50% of total number of MRSA strains, whilst MIC90 indicates a concentration yielding the proliferation inhibitory effect in 90% of total number of MRSA strains.

[2] = Dissolution of rutin (auxiliary effects of L-arginine hydrochloride and L-cysteine); solubility in water; assay type: physicochemical
Experimental: To the solution B, is added 3.5 mL of the solution A. After adjusting the pH of the mixture to 8.5 with HCl, the mixture is filtered to give an injectable.

MRSA [3] = experiment: Enhancement of the antibacterial activity of various antibiotics by flavone on MRSA; assay type: cell-based, Staphylococcus aureus; conditions: for MIC: Staphylococcus aureus, antibiotics alone; for MIC +flavone: addition of 50 μg/mL of flavone
Experimental: as §1
Antibacterial Activities of Various β-Lactam Antibiotics on MRSA with 50 μg/mL of Flavone

[4] = test system: penicillinase producing Staphylococcus aureus; experiment: Effects of flavone in combination with benzylpenicillin or methicillin on penicillinase producing Staphylococcus aureus; assay type: cell-based; conditions: antibiotic alone
Experimental: as §1
The effects of flavone in combination with benzylpenicillin or methicillin on penicillinase producing Staphylococcus aureus are shown in Table 4.
Effects of Flavone in Combination with Benzylpenicillin or Methicillin on Penicillinase Producing Staphylococcus aureus.

MRSA [5] = experiment: Enhancement of the antibacterial activity of methicillin by various flavonoids on MRSA; assay type: cell-based, Staphylococcus aureus; conditions: methicillin alone
Experimental: as §1
Antibacterial Activities of Methicillin on MRSA with 50 μg/mL of Various Flavonoids

MRSA infected mouse = experiment: Antibacterial activity on MRSA infected mouse (survival rate after 5 days); assay type: in vivo
Experimental: MRSA was incubated with Brain-Heart Infusion medium at 37° C. for 18 hours, and then the bacteria were collected and washed, followed by resuspension in saline. The suspension was admixed in an aqueous 5% gastric mucin solution and the concentration was adjusted to a predetermined value. Then, 0.2 mL of the mixture was intraperitoneally administered to an ICR strain SPF mouse. At one hour after the infection, various concentrations of β-lactam agents and rutin (0.2 mL) was subcutaneously administered, and survival rate was analyzed after 5 days and thus the effectiveness was evaluated. In addition, the effectiveness by oral administration (0.2 mL) was evaluated and various concentrations of β-lactam agents and rutin (0.2 mL) were administered using a gastric probe 1 hour or 5 hours prior to the infection.

[6] = Staphylococcus aureus, read-out: MIC50
[7] = Staphylococcus aureus, read-out: MIC90

SMILES: O=c1c(O)c(-c2ccc(O)c(O)c2)oc2cc(O)ccc12 [fisetin]
- MIC (MRSA [1]; Staphylococcus aureus): 62.5 to 125 µg/mL (≈ 218 to 437 µM)
- MIC50 (MRSA [1]; [6]): 125 µg/mL (≈ 437 µM)
- MIC90 (MRSA [1]; [7]): 125 µg/mL (≈ 437 µM)
- antibacterial activity on MRSA (in words) (MRSA [1]): potent antibacterial activity

SMILES: O=C1C[C@@H](c2ccc(O)cc2)Oc2cc(O)ccc21 [liquiritigenin]
- MIC50 (MRSA [1]): 500 µg/mL (≈ 1950 µM)
- MIC90 (MRSA [1]): 500 µg/mL (≈ 1950 µM)
- MIC range (MRSA [1]): 250 to 500 µg/mL

SMILES: O=c1c(O)c(-c2ccc(O)cc2O)oc2cc(O)cc(O)c12 [morin]
- MIC50 (MRSA [1]; [6]): 500 µg/mL (≈ 1650 µM)
- MIC90 (MRSA [1]; [7]): > 500 µg/mL

SMILES: O=c1c(O)c(-c2cc(O)c(O)c(O)c2)oc2cc(O)cc(O)c12 [myricetin]
- MIC (MRSA [1]; Staphylococcus aureus): 250 to 500 µg/mL (≈ 786 to 1570 µM)
- MIC50 (MRSA [1]; [6]): 500 µg/mL (≈ 1570 µM)
- MIC90 (MRSA [1]; [7]): 500 µg/mL (≈ 1570 µM)

SMILES: Cc1onc(-c2ccccc2)c1C(=O)N[C@@H]1C(=O)N2[C@@H]1SC(C)(C)[C@@H]2C(=O)O [oxacillin]
- MIC (MRSA [3]): 512 µg/mL
- MIC +flavone (MRSA [3]): 1 µg/mL
- survival rate (MRSA infected mouse; antibiotic alone, 0.5 mg/mouse, after 5 days): 20%
- survival rate (MRSA infected mouse; antibiotic alone, 1 mg/mouse, after 5 days): 0%
- survival rate (MRSA infected mouse; antibiotic alone, 5 mg/mouse, after 5 days): 20%
- survival rate (MRSA infected mouse; antibiotic alone, 10 mg/mouse, after 5 days): 20%
- survival rate (MRSA infected mouse; antibiotic alone, 15 mg/mouse, after 5 days): 0%
- survival rate (MRSA infected mouse; oral, antibiotic 10 mg/mouse with rutin 5 mg/mouse): 20%
- survival rate (MRSA infected mouse; oral, antibiotic 10 mg/mouse with rutin 10 mg/mouse): 20%
- survival rate (MRSA infected mouse; oral, antibiotic 15 mg/mouse with rutin 5 mg/mouse): 40%
- survival rate (MRSA infected mouse; oral, antibiotic 15 mg/mouse with rutin 10 mg/mouse): 40%
- survival rate (MRSA infected mouse; oxacillin alone, all doses): ≤ 20%
- survival rate (MRSA infected mouse; subcutaneous, antibiotic 10 mg/mouse with rutin 5 mg/mouse): 40%
- survival rate (MRSA infected mouse; subcutaneous, antibiotic 10 mg/mouse with rutin 10 mg/mouse): 80%
- survival rate (MRSA infected mouse; subcutaneous, antibiotic 15 mg/mouse with rutin 5 mg/mouse): 60%
- survival rate (MRSA infected mouse; subcutaneous, antibiotic 15 mg/mouse with rutin 10 mg/mouse): 60%

SMILES: Oc1ccc(-c2[o+]c3cc(O)cc(O)c3cc2O)cc1 [palagonidin]
- MIC (MRSA [1]; Staphylococcus aureus): 250 µg/mL
- MIC50 (MRSA [1]; [6]): 250 µg/mL
- MIC90 (MRSA [1]; [7]): 250 µg/mL

SMILES: O=C(CCc1ccc(O)cc1)c1c(O)cc(O)cc1O [phloretin]
- MIC (MRSA [1]; Staphylococcus aureus): 125 to 250 µg/mL (≈ 456 to 912 µM)
- MIC50 (MRSA [1]; [6]): 250 µg/mL (≈ 912 µM)
- MIC90 (MRSA [1]; [7]): 250 µg/mL (≈ 912 µM)

SMILES: C[C@@H]1O[C@@H](OC[C@H]2O[C@@H](Oc3c(-c4ccc(O)c(O)c4)oc4cc(O)cc(O)c4c3=O)[C@H](O)[C@@H](O)[C@@H]2O)[C@H](O)[C@H](O)[C@H]1O [rutin]
- solubility ([2]; aqueous with cosolvent or surfactant or cyclodextrin, solution with 4 mmol L-arginine hydrochloride, 1 mmol L-cysteine, 8 mmol 1 N NaOH, adjusted to pH 8.5, precipitate removed): 49.8 mg/mL (≈ 81600 µM)
- survival rate (MRSA infected mouse; rutin alone, oral, 1 mg/mouse): 20%
- survival rate (MRSA infected mouse; rutin alone, oral, 5 mg/mouse): 20%
- survival rate (MRSA infected mouse; rutin alone, oral, 10 mg/mouse): 20%
- survival rate (MRSA infected mouse; rutin alone, oral, 15 mg/mouse): 40%
- survival rate (MRSA infected mouse; rutin alone, subcutaneous, 1 mg/mouse): 40%
- survival rate (MRSA infected mouse; rutin alone, subcutaneous, 5 mg/mouse): 40%
- survival rate (MRSA infected mouse; rutin alone, subcutaneous, 10 mg/mouse): 20%
- survival rate (MRSA infected mouse; rutin alone, subcutaneous, 15 mg/mouse): 40%

Now from value to compound, other results behind:

- solubility in water (in words) [2]: insoluble in water
- MIC50 (MRSA [1]; [6]): 62.5 µg/mL (≈ 281 µM)
- MIC90 (MRSA [1]; [7]): 125 µg/mL (≈ 562 µM)
SMILES: O=c1cc(-c2ccccc2)oc2ccccc12 [flavone]

- MIC50 (MRSA [1]; [6]): 500 µg/mL (≈ 1730 µM)
- MIC90 (MRSA [1]; [7]): 500 µg/mL (≈ 1730 µM)
SMILES: O=C1c2ccc(O)cc2O[C@H](c2ccc(O)c(O)c2)[C@H]1O [fustin]

- MIC50 (MRSA [1]): 125 µg/mL (≈ 416 µM)
- MIC90 (MRSA [1]): 125 µg/mL (≈ 416 µM)
- MIC range (MRSA [1]): 15.6 to 125 µg/mL
SMILES: COc1ccc(-c2oc3cc(O)cc(O)c3c(=O)c2O)cc1 [kaempferid]
- antibacterial activity on MRSA (in words) (MRSA [1]): potent antibacterial activity

- MIC (MRSA [3]): 1020 µg/mL
- MIC +flavone (MRSA [3]): 4 µg/mL
- MIC [4]: 0.98 µg/mL
- MIC (MRSA [5]; Staphylococcus aureus): 1020 µg/mL
- MIC of methicillin (MRSA [5]): 1024 µg/mL
SMILES: COc1cccc(OC)c1C(=O)N[C@@H]1C(=O)N2[C@@H]1SC(C)(C)[C@@H]2C(=O)O [methicillin]

- MIC50 (MRSA [1]; [6]): 500 µg/mL (≈ 1840 µM)
- MIC90 (MRSA [1]; [7]): > 500 µg/mL
SMILES: O=C1C[C@@H](c2ccc(O)cc2)Oc2cc(O)cc(O)c21 [naringenin]

- MIC (MRSA [3]): 64 µg/mL
- MIC +flavone (MRSA [3]): 0.002 µg/mL
SMILES: CC(=N)N1CC[C@H](SC2=C(C(=O)O)N3C(=O)[C@H]([C@@H](C)O)[C@H]3C2)C1 [panipenem]

- MIC (MRSA [3]): 128 µg/mL
- MIC +flavone (MRSA [3]): 16 µg/mL
SMILES: CC(Oc1ccccc1)C(=O)N[C@@H]1C(=O)N2[C@@H]1SC(C)(C)[C@@H]2C(=O)O (stereo partly drawn) [phenethicillin]
